Assay results published in publication PMC4278837, “A Cyclic Peptidic Serine Protease Inhibitor: Increasing Affinity by Increasing Peptide Flexibility” (PLoS ONE, 2014).
Square brackets hold non-standard residues; d marks the D form. Peptide text beside a SMILES is read from it. * marks the point of attachment. pNA = O=[N+]([O-])c1ccc(N*)cc1; pGlu = O=C1CC[C@@H](C(=O)O)N1

Columns and labels:
Conditions in all cases: 37°C, HBS with 0.1% BSA
muPA S190A = target: T1, muPA S190A (Mus musculus, UniProt P06869, S373A); test: KM for S-2444 hydrolysis by muPA S190A; type: biochemical, murine
T1 construct: To ensure that the uPAs purified from the conditioned media were completely in the two-chain form, they were treated with plasmin; hexa-His (C); made in house; host or cells: HEK293 6E suspension cells
T1 sequence (P06869 180-433 S373A): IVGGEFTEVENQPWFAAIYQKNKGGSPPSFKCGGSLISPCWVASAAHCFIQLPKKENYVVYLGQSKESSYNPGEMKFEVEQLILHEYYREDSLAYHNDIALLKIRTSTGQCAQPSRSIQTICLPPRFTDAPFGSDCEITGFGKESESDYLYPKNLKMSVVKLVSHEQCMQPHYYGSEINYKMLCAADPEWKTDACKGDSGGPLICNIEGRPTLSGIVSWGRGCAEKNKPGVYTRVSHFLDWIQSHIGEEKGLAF
T1 sequence (P06869 21-178 partner limits assumed): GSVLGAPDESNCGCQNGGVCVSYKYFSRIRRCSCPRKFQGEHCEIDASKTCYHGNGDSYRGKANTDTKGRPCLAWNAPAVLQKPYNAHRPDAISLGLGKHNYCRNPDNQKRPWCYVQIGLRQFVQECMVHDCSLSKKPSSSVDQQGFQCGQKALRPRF
Experimental: (§1) Determination of K M values
(§2) To determine the K M values for hydrolysis of S-2444 (pyro-Glu-Gly-Arg-p-nitroanilide) by the different uPA variants used in the present study, a 200 µL 2-fold dilution series of the substrate (4 - 0 mM for huPA variants, 24 – 0 mM for muPA variants) in a buffer of 10 mM HEPES, pH 7.4, 140 mM NaCl (HEPES-buffered saline, HBS), with 0.1% bovine serum albumin (BSA), was incubated 2 min at 37°C, prior to the addition of a fixed concentration of each protease (approximaterly 2 nM final concentration). The initial reaction velocities (V i), monitored as the changes in absorbance at 405 nm, were plotted against the initial substrate concentration ([S]) and non-linear regression analysis was used to determine the K M according to equation 1: […]
(§3) The K M values for hydrolysis of S-2444 by the uPA variants employed in the present study are listed in S2 Table.

huPA wt = target: T2, huPA wt (Homo sapiens, UniProt P00749); test: KM for S-2444 hydrolysis by huPA wt; type: biochemical
T2 construct: To ensure that the uPAs purified from the conditioned media were completely in the two-chain form, they were treated with plasmin; hexa-His (C); made in house; host or cells: HEK293 6E suspension cells
Experimental: as §1, §2, §3

muPA V213T = target: T3, muPA V213T (Mus musculus, UniProt P06869, V396T); test: KM for S-2444 hydrolysis by muPA V213T; type: biochemical, murine
T3 construct: To ensure that the uPAs purified from the conditioned media were completely in the two-chain form, they were treated with plasmin; hexa-His (C); made in house; host or cells: HEK293 6E suspension cells
T3 sequence (P06869 180-433 V396T): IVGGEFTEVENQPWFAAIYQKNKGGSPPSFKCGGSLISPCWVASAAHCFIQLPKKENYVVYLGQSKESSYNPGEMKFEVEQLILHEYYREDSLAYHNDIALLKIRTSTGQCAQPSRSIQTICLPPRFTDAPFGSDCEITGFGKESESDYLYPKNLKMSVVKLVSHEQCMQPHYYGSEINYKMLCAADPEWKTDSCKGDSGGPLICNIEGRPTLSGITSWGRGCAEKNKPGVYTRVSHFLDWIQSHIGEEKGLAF
T3 sequence (P06869 21-178 partner limits assumed): as the sequence (P06869 21-178 partner limits assumed) above
Experimental: as §1, §2, §3

huPA-H99Y R35A = target: T4, huPA-H99Y R35A (Homo sapiens, UniProt P00749, H272Y/R198A); test: KM for S-2444 hydrolysis by huPA-H99Y R35A; type: biochemical
T4 construct: To ensure that the uPAs purified from the conditioned media were completely in the two-chain form, they were treated with plasmin; hexa-His (C); made in house; host or cells: HEK293 6E suspension cells
Experimental: as §1, §2, §3

huPA-H99Y Q192A = huPA-H99Y Q192A (Homo sapiens, UniProt P00749, H272Y/Q373A); test: KM for S-2444 hydrolysis by huPA-H99Y Q192A; type: biochemical; parameters: hexa-His (C); made in house; host or cells: HEK293 6E suspension cells
Experimental: as §1, §2, §3

muPA K41A = target: T5, muPA K41A (Mus musculus, UniProt P06869, K210A); test: KM for S-2444 hydrolysis by muPA K41A; type: biochemical, murine
T5 construct: To ensure that the uPAs purified from the conditioned media were completely in the two-chain form, they were treated with plasmin; hexa-His (C); made in house; host or cells: HEK293 6E suspension cells
T5 sequence (P06869 180-433 K210A): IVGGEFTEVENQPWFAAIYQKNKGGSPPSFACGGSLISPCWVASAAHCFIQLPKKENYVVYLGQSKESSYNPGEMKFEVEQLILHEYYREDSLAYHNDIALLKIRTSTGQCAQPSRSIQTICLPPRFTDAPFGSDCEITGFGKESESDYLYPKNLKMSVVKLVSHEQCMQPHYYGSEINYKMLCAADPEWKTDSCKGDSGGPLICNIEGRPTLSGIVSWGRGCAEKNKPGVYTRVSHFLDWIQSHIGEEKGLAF
T5 sequence (P06869 21-178 partner limits assumed): as the sequence (P06869 21-178 partner limits assumed) above
Experimental: as §1, §2, §3

muPA Y99A = target: T6, muPA Y99A (Mus musculus, UniProt P06869, Y274A); test: KM for S-2444 hydrolysis by muPA Y99A; type: biochemical, murine
T6 construct: To ensure that the uPAs purified from the conditioned media were completely in the two-chain form, they were treated with plasmin; hexa-His (C); made in house; host or cells: HEK293 6E suspension cells
T6 sequence (P06869 180-433 Y274A): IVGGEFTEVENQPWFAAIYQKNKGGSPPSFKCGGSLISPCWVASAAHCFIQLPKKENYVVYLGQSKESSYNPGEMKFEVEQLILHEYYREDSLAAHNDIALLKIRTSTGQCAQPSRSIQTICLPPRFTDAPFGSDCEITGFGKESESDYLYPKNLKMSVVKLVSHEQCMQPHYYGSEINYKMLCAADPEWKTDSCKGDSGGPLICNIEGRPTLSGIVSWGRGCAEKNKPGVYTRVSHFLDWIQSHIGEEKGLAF
T6 sequence (P06869 21-178 partner limits assumed): as the sequence (P06869 21-178 partner limits assumed) above
Experimental: as §1, §2, §3

muPA wt = target: T7, muPA wt (Mus musculus, UniProt P06869); test: KM for S-2444 hydrolysis by muPA wt; type: biochemical, murine
T7 construct: To ensure that the uPAs purified from the conditioned media were completely in the two-chain form, they were treated with plasmin; hexa-His (C); made in house; host or cells: HEK293 6E suspension cells
T7 sequence (P06869 180-433 limits assumed): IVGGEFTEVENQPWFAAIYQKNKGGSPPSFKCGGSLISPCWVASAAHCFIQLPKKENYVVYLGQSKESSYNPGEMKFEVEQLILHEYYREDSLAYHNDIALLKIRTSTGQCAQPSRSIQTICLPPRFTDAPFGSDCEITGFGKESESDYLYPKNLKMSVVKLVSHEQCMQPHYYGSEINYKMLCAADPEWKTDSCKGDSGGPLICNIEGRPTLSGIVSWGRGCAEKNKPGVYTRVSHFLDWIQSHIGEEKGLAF
T7 sequence (P06869 21-178 partner limits assumed): as the sequence (P06869 21-178 partner limits assumed) above
Experimental: as §1, §2, §3

huPA-H99Y = target: T8, huPA-H99Y (Homo sapiens, UniProt P00749, H272Y); test: KM for S-2444 hydrolysis by huPA-H99Y; type: biochemical
T8 construct: To ensure that the uPAs purified from the conditioned media were completely in the two-chain form, they were treated with plasmin; hexa-His (C); made in house; host or cells: HEK293 6E suspension cells
Experimental: as §1, §2, §3

huPA-H99Y V41A = target: T9, huPA-H99Y V41A (Homo sapiens, UniProt P00749, H272Y/V208A); test: KM for S-2444 hydrolysis by huPA-H99Y V41A; type: biochemical
T9 construct: To ensure that the uPAs purified from the conditioned media were completely in the two-chain form, they were treated with plasmin; hexa-His (C); made in house; host or cells: HEK293 6E suspension cells
Experimental: as §1, §2, §3

muPA K143A = target: T10, muPA K143A (Mus musculus, UniProt P06869, K322A); test: KM for S-2444 hydrolysis by muPA K143A; type: biochemical, murine
T10 construct: To ensure that the uPAs purified from the conditioned media were completely in the two-chain form, they were treated with plasmin; hexa-His (C); made in house; host or cells: HEK293 6E suspension cells
T10 sequence (P06869 180-433 K322A): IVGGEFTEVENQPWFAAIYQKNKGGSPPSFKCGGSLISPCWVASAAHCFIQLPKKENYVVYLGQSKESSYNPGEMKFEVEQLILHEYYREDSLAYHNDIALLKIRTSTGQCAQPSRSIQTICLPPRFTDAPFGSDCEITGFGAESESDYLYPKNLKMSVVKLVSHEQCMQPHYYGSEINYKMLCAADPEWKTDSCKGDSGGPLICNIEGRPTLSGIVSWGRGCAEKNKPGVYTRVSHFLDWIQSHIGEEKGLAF
T10 sequence (P06869 21-178 partner limits assumed): as the sequence (P06869 21-178 partner limits assumed) above
Experimental: as §1, §2, §3

huPA-H99Y K143A = target: T11, huPA-H99Y K143A (Homo sapiens, UniProt P00749, H272Y/K320A); test: KM for S-2444 hydrolysis by huPA-H99Y K143A; type: biochemical
T11 construct: To ensure that the uPAs purified from the conditioned media were completely in the two-chain form, they were treated with plasmin; hexa-His (C); made in house; host or cells: HEK293 6E suspension cells
Experimental: as §1, §2, §3

Km (muPA S190A): 10800 ± 1000 µM | Km (huPA wt): 87 ± 0.3 µM | Km (muPA V213T): 868 ± 350 µM | Km (huPA-H99Y R35A): 517 ± 156 µM | Km (huPA-H99Y Q192A): 904 ± 178 µM | Km (muPA K41A): 2500 ± 200 µM | Km (muPA Y99A): 3600 ± 300 µM | Km (muPA wt): 2400 ± 200 µM | Km (huPA-H99Y): 610 ± 110 µM | Km (huPA-H99Y V41A): 742 ± 73 µM | Km (muPA K143A): 1000 ± 400 µM | Km (huPA-H99Y K143A): 500 ± 41 µM
SMILES: NC(N)=NCCC[C@H](NC(=O)CNC(=O)[C@@H]1CCC(=O)N1)C(=O)Nc1ccc([N+](=O)[O-])cc1 [S-2444, pyro-Glu-Gly-Arg-p-nitroanilide] ([pGlu]-Gly-Arg-pNA)
